Test results as given in patent US20100099614A1, “Antimicrobial Peptides and Methods of Use” (priority 2008, published 2010).
In brackets after ≈: the same amount, converted by molar mass. Entries after “also recorded” stand apart in the source; their conditions may differ. Square brackets hold non-standard residues; d marks the D form. Ends that are not written are not given here. Peptide text beside a SMILES is read from it.

Columns and labels:
human erythrocytes = assay: Hemolytic activity (MHC), Protocol A; format: cell-based
Description: Hemoglobin release was determined spectrophotometrically at 562 nm.
In some experiments the hemolytic titer was determined as the highest 2-fold dilution of peptide that caused hemoglobin release.

Gram-negative bacteria = assay: Antibacterial activity (MIC), microtiter dilution; format: cell-based; conditions: for MIC: against Gram-negative bacteria
Description: MICs were determined by a standard microtiter dilution method in Mueller Hinton Broth (MHB). Serial dilutions of the 10× compound were added to the microtiter plates in a volume of 10 μL followed by 90 μL of bacteria for an inoculum of 5×10^5 colony-forming units (CFU)/mL. The plates were incubated at 37° C. for 24 h, and the MICs were determined as the lowest peptide concentration that inhibited growth. […]
Alternatively; minimal inhibitory concentrations were determined using a standard microtiter dilution method in a Mueller-Hinton (MH) medium. Briefly, cells were grown overnight at 37° C. in MH broth and diluted in the same medium. Serial dilutions of the peptides were added to the microtiter plates in a volume of 100 μl followed by 10 μl of bacteria for an initial cell concentration of 1×10^5 CFU/ml. Plates were incubated at 37° C. for 24 hours and MICs determined as the lowest peptide concentration that inhibited growth.

Gram-positive bacteria = conditions: gram-positive bacteria, geometric mean MIC
[1] = Peptide hydrophobicity by RP-HPLC retention; format: physicochemical; conditions: 80° C.; for change in hydrophobicity (RP-HPLC retention) relative to PVL: polar face substitution
Description: Peptide Synthesis and Purification—Syntheses of the peptides were carried out by solid-phase peptide synthesis using t-butyloxycarbonyl chemistry and MBHA (4-methylbenzhydrylamine) resin (0.97 mmol/g), followed by cleavage of the peptide from the resin as described previously (117-119). However, it is understood in the art that there are other suitable instruments and methods for automated or manual peptide synthesis that could be employed to produce the peptides described herein. Peptide purification was performed by reversed-phase high-performance liquid chromatography (RP-HPLC) on a Zorbax 300 SB-C8 column (250×9.4 mm I.D.; 6.5 μm particle size, 300 Å pore size; Agilent Technologies, Little Falls, Del.) with a linear AB gradient (0.1% acetonitrile/min) at a flow rate of 2 mL/min, where eluent A was 0.2% aqueous trifluoroacetic acid (TFA), pH 2, and eluent B was 0.2% TFA in acetonitrile, where the shallow 0.1% acetonitrile/min gradient started 12% below the acetonitrile concentration required to elute the peptide on injection of analytical sample using a gradient of 1% acetonitrile/min (113). The purity of the peptides was verified by analytical RP-HPLC as described below and further characterized by mass spectrometry and amino acid analysis. Crude and purified peptides were analyzed on an Agilent 1100 series liquid chromatograph. Runs were performed on a Zorbax 300 SB-C8 column (150×2.1 mm I.D.; 5 μm particle size, 300 Å pore size) from Agilent Technologies using a linear AB gradient (1% acetonitrile/min) and a flow rate of 0.25 mL/min, where eluent A was 0.2% aqueous TFA, pH 2, and eluent B was 0.2% TFA in acetonitrile.
Analytical RP-HPLC of Peptides—Peptides were analyzed on an Agilent 1100 series liquid chromatograph (Little Falls, Del.). Runs were performed on a Zorbax 300 SB-C8 column (150×2.1 mm I.D.; 5 μm particle size, 300 Å pore size) from Agilent Technologies using linear AB gradient (1% acetonitrile/min) and a flow rate of 0.25 ml/min, where solvent A was 0.05% aqueous TFA, pH 2 and solvent B was 0.05% TFA in acetonitrile. Temperature profiling analyses were performed in 3° C. increments, from 5° C. to 80° C.

CC[C@H](C)[C@H](NC(=O)[C@H](C)NC(=O)[C@H](CCCCN)NC(=O)[C@H](CC(C)C)NC(=O)[C@H](C)NC(=O)[C@@H](NC(=O)[C@H](Cc1c[nH]cn1)NC(=O)[C@H](CC(C)C)NC(=O)[C@@H](NC(=O)[C@@H](NC(=O)[C@H](CCCCN)NC(=O)[C@@H](C)NC(=O)[C@H](C)NC(=O)[C@H](CO)NC(=O)[C@H](CCCCN)NC(=O)[C@H](Cc1ccccc1)NC(=O)[C@@H](NC(=O)[C@H](CCCCN)NC(=O)[C@H](CC(C)C)NC(=O)[C@H](Cc1ccccc1)NC(=O)[C@H](CO)NC(=O)[C@H](CCCCN)NC(=O)[C@H](Cc1c[nH]c2ccccc12)NC(=O)[C@H](CCCCN)NC(C)=O)[C@@H](C)O)[C@@H](C)O)C(C)C)[C@@H](C)O)C(=O)N[C@@H](CO)C(=O)N[C@@H](CO)C(N)=O [NAD] (HELM PEPTIDE1{[ac].K.W.K.S.F.L.K.T.F.K.S.A.[dA].K.T.V.L.H.T.A.L.K.A.I.S.S.[am]}$$$$V2.0)
fold decrease in hemolytic activity relative to L-diastereomer (human erythrocytes): 8 fold
minimal hemolytic concentration (MHC) (human erythrocytes; red cells of human, 12 h): 250 µg/mL

CC[C@H](C)[C@H](NC(=O)[C@H](C)NC(=O)[C@H](CCCCN)NC(=O)[C@H](CC(C)C)NC(=O)[C@H](C)NC(=O)[C@@H](NC(=O)[C@H](Cc1cnc[nH]1)NC(=O)[C@H](CC(C)C)NC(=O)[C@@H](NC(=O)[C@@H](NC(=O)[C@H](CCCCN)NC(=O)[C@H](CCCCN)NC(=O)[C@H](C)NC(=O)[C@H](CO)NC(=O)[C@H](CCCCN)NC(=O)[C@H](Cc1ccccc1)NC(=O)[C@@H](NC(=O)[C@H](CCCCN)NC(=O)[C@H](CC(C)C)NC(=O)[C@H](Cc1ccccc1)NC(=O)[C@H](CO)NC(=O)[C@H](CCCCN)NC(=O)[C@H](Cc1c[nH]c2ccccc12)NC(=O)[C@H](CCCCN)NC(C)=O)[C@@H](C)O)[C@@H](C)O)C(C)C)[C@@H](C)O)C(=O)N[C@@H](CO)C(=O)N[C@@H](CO)C(N)=O [NKL]
fold decrease in hemolytic activity relative to V681 (human erythrocytes): > 32 fold
minimal hemolytic concentration (MHC) (human erythrocytes; human erythrocytes): undetectable level; also recorded: no detectable hemolytic activity
MIC (Gram-negative bacteria): 3.1 µg/mL (≈ 1.04 µM)

CC[C@H](C)[C@H](NC(=O)[C@H](C)NC(=O)[C@H](CCCCN)NC(=O)[C@H](CC(C)C)NC(=O)[C@H](C)NC(=O)[C@@H](NC(=O)[C@H](Cc1c[nH]cn1)NC(=O)[C@H](CC(C)C)NC(=O)[C@@H](NC(=O)[C@@H](NC(=O)[C@H](CCCCN)NC(=O)[C@@H](NC(=O)[C@H](C)NC(=O)[C@@H](CO)NC(=O)[C@H](CCCCN)NC(=O)[C@H](Cc1ccccc1)NC(=O)[C@@H](NC(=O)[C@H](CCCCN)NC(=O)[C@H](CC(C)C)NC(=O)[C@H](Cc1ccccc1)NC(=O)[C@H](CO)NC(=O)[C@H](CCCCN)NC(=O)[C@H](Cc1c[nH]c2ccccc12)NC(=O)[C@H](CCCCN)NC(C)=O)[C@@H](C)O)C(C)C)[C@@H](C)O)C(C)C)[C@@H](C)O)C(=O)N[C@@H](CO)C(=O)N[C@@H](CO)C(N)=O [PSD] (HELM PEPTIDE1{[ac].K.W.K.S.F.L.K.T.F.K.[dS].A.V.K.T.V.L.H.T.A.L.K.A.I.S.S.[am]}$$$$V2.0; N-terminus and C-terminus assumed)
improvement in antimicrobial activity compared to V681 (Gram-positive bacteria): 2.7 fold

CC[C@H](C)[C@H](NC(=O)[C@H](C)NC(=O)[C@H](CCCCN)NC(=O)[C@H](CC(C)C)NC(=O)[C@H](C)NC(=O)[C@@H](NC(=O)[C@H](Cc1c[nH]cn1)NC(=O)[C@H](CC(C)C)NC(=O)[C@@H](NC(=O)[C@@H](NC(=O)[C@H](CCCCN)NC(=O)[C@@H](NC(=O)[C@H](C)NC(=O)[C@H](NC(=O)[C@H](CCCCN)NC(=O)[C@H](Cc1ccccc1)NC(=O)[C@@H](NC(=O)[C@H](CCCCN)NC(=O)[C@H](CC(C)C)NC(=O)[C@H](Cc1ccccc1)NC(=O)[C@H](CO)NC(=O)[C@H](CCCCN)NC(=O)[C@H](Cc1c[nH]c2ccccc12)NC(=O)[C@H](CCCCN)NC(C)=O)[C@@H](C)O)C(C)C)C(C)C)[C@@H](C)O)C(C)C)[C@@H](C)O)C(=O)N[C@@H](CO)C(=O)N[C@@H](CO)C(N)=O [PVD] (HELM PEPTIDE1{[ac].K.W.K.S.F.L.K.T.F.K.[dV].A.V.K.T.V.L.H.T.A.L.K.A.I.S.S.[am]}$$$$V2.0)
fold decrease in hemolytic activity relative to L-diastereomer (human erythrocytes): 16 fold
minimal hemolytic concentration (MHC) (human erythrocytes; red cells of human, 12 h): 125 µg/mL

Ac-KWKSFLKTFKSAAKTVLHTALKAISS-NH2 [NAL]
minimal hemolytic concentration (MHC) (human erythrocytes; red cells of human, 12 h): 31.2 µg/mL

Ac-KWKSFLKTFKSALKTVLHTALKAISS-NH2 [NLL]
minimal hemolytic concentration (MHC) (human erythrocytes; red cells of human, 12 h): 7.8 µg/mL
MIC (Gram-negative bacteria): 12.7 µg/mL

Ac-KWKSFLKTFKVAVKTVLHTALKAISS-NH2 [PVL]
minimal hemolytic concentration (MHC) (human erythrocytes; red cells of human, 12 h): 7.8 µg/mL

NSL: V681 analog, L-Ser at position 13 (non-polar face) (KWKSFLKTFKSASKTVLHTALKAISS)
change in hydrophobicity (RP-HPLC retention) relative to NVL ([1]; non-polar face substitution): -8.21 min

PAL: V681 analog, L-Ala at position 11 (polar face) (KWKSFLKTFKAAVKTVLHTALKAISS)
change in hydrophobicity (RP-HPLC retention) relative to PVL [1]: +0.45 min

PKD: V681 analog, D-Lys at position 11 (KWKSFLKTFK[dK]AVKTVLHTALKAISS-NH2)
improvement on the average MIC value compared to V681 (Gram-negative bacteria; geometric mean of 6 gram-negative strains): 3.4 fold

PKL: V681 analog, L-Lys at position 11 (polar face) (KWKSFLKTFKKAVKTVLHTALKAISS)
change in hydrophobicity (RP-HPLC retention) relative to PVL [1]: -2.29 min
